From patent US20230416262A1, “TRPML MODULATORS” (Casma Therapeutics, Inc., priority 2020, published 2023)
pEC50: −log10 of the molar value.

Experiments:
THP-1 cells = assay: Lamp1 lysosomal exocytosis assay; type: cell-based; conditions: Homo sapiens, 55 min, 55 min incubation, top dose 20 μM
In short: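 THP-1 cells (1e5/well) exposed to a 7-point 3-fold compound series, top final 20 μM, for 55 min at 37°C. Surface Lamp1 then stained with Lamp1-PE on ice in buffer containing 80 μM Dynasore, and read by flow cytometry as PE geometric mean on live, sytox-negative singlets.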

TFEB = TFEB nuclear translocation assay; type: cell-based; conditions: Homo sapiens; HeLa wt or HeLa TRPML1 KO cells, treated for 2 hrs; ratio of nuclear to ring-region TFEB intensity
In short: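 HeLa wild-type or TRPML1 KO cells treated 2 h with compound at 37 °C, PFA-fixed, immunostained for TFEB (Alexa 488) with Hoechst nuclei. Imaged at ×20, four fields/well. Value is ratio of nuclear to perinuclear-ring TFEB intensity, with nuclei counts.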

Compound | pEC50 (THP-1 cells) | pEC50 (TFEB)
O=C(OCc1ccccc1)N1CCC2(CC1)CN(C(=O)Oc1ccc(C(F)F)cc1)c1ccccc12 [Compound I-249, 1′-benzyl 1-(4-(difluoromethyl)phenyl) spiro[indoline-3,4′-piperidine]-1,1′-dicarboxylate] | ≤ 5.30 | ≤ 5.00
O=C(OCc1ccccc1)N1CCC2(CC1)CN(S(=O)(=O)Cc1ccc(C(F)F)cc1)c1ccccc12 [Compound I-250, benzyl 1-((4-(difluoromethyl)benzyl)sulfonyl)spiro[indoline-3,4′-piperidine]-1′-carboxylate] | ≥ 6.30 | ≥ 5.70
